# How the values were obtained:
# [1] = system: coronavirus pseudoviruses such as 2019-nCoV; conditions: verified in Chinese Patent Application No. CN202180001804.1; cited from earlier work
# [2] = system: SARS-CoV-2 BQ.1 pseudovirus
# [3] = system: SARS-CoV-2 BA.2.2 pseudovirus
# [4] = system: SARS-CoV-2 Beta pseudovirus
# [5] = system: SARS-CoV-2 BA.2 pseudovirus
# [6] = system: SARS-CoV-2 prototype pseudovirus
# [7] = system: SARS-CoV-2 BA.2.12.1 pseudovirus
# [8] = system: SARS-CoV-2 Gamma pseudovirus
# [9] = system: SARS-CoV-2 BA.2.75 pseudovirus
# [10] = system: SARS-CoV-2 BA.5 pseudovirus
# [11] = system: SARS-CoV-2 BF.7 pseudovirus
# [12] = system: SARS-CoV-2 Delta pseudovirus
# [13] = system: SARS-CoV-2 Lambda pseudovirus
# [14] = system: SARS-CoV-2 Alpha pseudovirus
# [15] = system: SARS-CoV-2 BA.3 pseudovirus
# [16] = system: SARS-CoV-2 BA.1 pseudovirus
# [17] = system: SARS-CoV-2 XBB pseudovirus
# [18] = system: SARS-CoV-2 BA.2.9 pseudovirus
# [19] = system: SARS-CoV-2 BA.4.6 pseudovirus
molecule,measurement,setting,value
SLDQINVTFLDLEYEMKKLEEAIKKLEESYIDLKEL-GSG-DPEG4-K(palmitic) [EK1-palmitic],inhibitory activity against coronavirus pseudoviruses,[1],possess inhibitory activity
SLDQINVTFLDLEYEMKKLEEAIKKLEESYIDLKEL-GSGSG-DPEG4-C(cholesterol) [EK1-chol],inhibitory activity against coronavirus pseudoviruses,[1],possess inhibitory activity
CC[C@H](C)[C@H](NC(=O)[C@H](C)NC(=O)[C@H](CCC(=O)O)NC(=O)[C@H](CCC(=O)O)NC(=O)[C@H](CC(C)C)NC(=O)[C@H](CCCCN)NC(=O)[C@H](CCCCN)NC(=O)[C@H](CCSC)NC(=O)[C@H](CCC(=O)O)NC(=O)[C@H](Cc1ccc(O)cc1)NC(=O)[C@H](CCC(=O)O)NC(=O)[C@H](CC(C)C)NC(=O)[C@H](CC(=O)O)NC(=O)[C@H](CC(C)C)NC(=O)[C@H](Cc1ccccc1)NC(=O)[C@@H](NC(=O)[C@@H](NC(=O)[C@H](CC(N)=O)NC(=O)[C@@H](NC(=O)[C@H](CCC(N)=O)NC(=O)[C@H](CC(=O)O)NC(=O)[C@H](CC(C)C)NC(=O)[C@@H](N)CO)[C@@H](C)CC)C(C)C)[C@@H](C)O)C(=O)N[C@@H](CCCCN)C(=O)N[C@@H](CCCCN)C(=O)N[C@@H](CC(C)C)C(=O)N[C@@H](CCC(=O)O)C(=O)N[C@@H](CCC(=O)O)C(=O)N[C@@H](CO)C(=O)N[C@@H](Cc1ccc(O)cc1)C(=O)N[C@H](C(=O)N[C@@H](CC(=O)O)C(=O)N[C@@H](CC(C)C)C(=O)N[C@@H](CCCCN)C(=O)N[C@@H](CCC(=O)O)C(=O)N[C@@H](CC(C)C)C(=O)O)[C@@H](C)CC [EK1],IC50,SARS-CoV pseudovirus,841 nM
same,IC50,HCoV-NL63 pseudovirus,1070 nM
same,IC50,[2],136 nM
same,IC50,[3],162 nM
same,IC50,[4],257 nM
same,IC50,[5],297 nM
same,IC50,[6],186 nM
same,IC50,[7],342 nM
same,IC50,[8],277 nM
same,IC50,[9],331 nM
same,IC50,[10],568 nM
same,IC50,[11],584 nM
same,IC50,[12],150 nM
same,IC50,[13],995 nM
same,IC50,[14],268 nM
same,IC50,[15],136 nM
same,IC50,Rs3367 pseudovirus,1340 nM
same,IC50,[16],70.5 nM
same,IC50,WIV1 pseudovirus,2450 nM
same,IC50,[17],233 nM
same,IC50,[18],199 nM
same,IC50,[19],473 nM

# Reference: patent publication EP4782466A1, “FUSION PROTEIN FOR INACTIVATING CORONAVIRUS AND USE THEREOF” (priority 2023, dated 2025)
